Data on two compounds can be found in ChEMBL document CHEMBL1158281, “Montiporic acids A and B, cytotoxic and antimicrobial polyacetylene carboxylic acids from eggs of the scleractinian coral Montipora digitata” (J Nat Prod, 1996).

Assay [1] deals with Escherichia coli. Briefly: Antibacterial activity against Escherichia coli. Format: functional, organism-based.
The subject of assay [2] is P388. Briefly: Cytotoxicity against mouse P388 cells. It counts as functional, cell-based.

Values after ≈ are worked out from the molar mass of the structure shown. Active and inactive are the calls of the source. No cut-off for these calls is given here.

As for `CCCCCCCC#CC#CCOCC(=O)O` [MONOTIPORIC ACID A], the result in assay [1] was Active. For the same compound, the IC50 in assay [2] worked out at 5 µg/mL (≈ 21.2 µM).

With `C=CCCCCCCCC#CC#CCOCC(=O)O` [MONOTIPORIC ACID B], the result in assay [1] was Active. In assay [2], this compound had an IC50 of 12 µg/mL (≈ 45.7 µM).
